For three molecules, MIC results are on record in patent US4048430A, “Mercaptopseudotrisaccharides” (SmithKline Corporation, priority 1975, dated 1977).

Structures are written as SMILES. ≈ marks a conversion by molar mass, not a printed value. Like-named read-outs stand apart in the source and are kept apart here. A value given as a limit tells only on which side of the number the result lay.

The assay deals with Pseudomonas aeruginosa. In words: standard agar inclusion test screen, minimum inhibitory concentration against Pseudomonas. The assay is classed as cell-based. To be noted: read-out: Minimum inhibitory concentrations (MIC). Here is the method: Compounds of this invention where R, R', R" and Y are hydrogen have antibacterial activity against a variety of bacteria and are especially active against Pseudomonas. Minimum inhibitory concentrations (MIC), as obtained in a standard agar inclusion test screen, range from 25 to 200 μg/ml against Pseudomonas aeruginosa.

Setting [1] is: standard agar inclusion test, Pseudomonas (aeruginosa).

Regarding `NC[C@H]1O[C@H](O[C@H]2[C@H](O)[C@@H](O)[C@H](N)C[C@@H]2N)[C@H](N)[C@@H](O)[C@@H]1S` [2-deoxy-4-O-(2,6-diamino-4-mercapto-2,4,6-trideoxy-α-D-glucopyranosyl)-D-streptamine], under setting [1], the MIC came out at 25 µg/mL (≈ 73.9 µM). On the same count and under the same terms, under `NC[C@H]1O[C@H](O[C@H]2[C@H](O)[C@@H](O)[C@H](N)C[C@@H]2N)[C@H](N)[C@@H](S)[C@@H]1O` [2-deoxy-4-O-(2,6-diamino-3-mercapto-2,3,6-trideoxy-α-D-glucopyranosyl)-D-streptamine] stands 63 µg/mL (≈ 186 µM). In the case of `NC[C@H]1O[C@H](O[C@H]2[C@H](O)[C@@H](O)[C@H](N)C[C@@H]2N)[C@H](N)[C@@H](O)[C@@H]1O` [neamine, 2-deoxy-4-O-(2,6-diamino-2,6-dideoxy-α-D-glucopyranosyl)-D-streptamine, reference compound], the MIC (Pseudomonas aeruginosa) was over 200 µg/mL.
